Experimental data taken from PMC7794844 (Molecules, 2020).
Like-named read-outs stand apart in the source and are kept apart here.

What was measured:
[1] = target: human ACE2 protein (Homo sapiens, UniProt Q9BYF1); assay: SPR affinity screen, compounds over immobilized ACE2-His (CM5 chip); type: binding
[2] = target: T1, SARS-CoV-2 spike S-RBD protein (Severe acute respiratory syndrome coronavirus 2, UniProt P0DTC2); assay: biochemical; type: binding
T1 construct: the S-RBD-mFc protein and ACE2-His protein were immobilized on a CM5 sensor chip; purchased Sino Biological (Beijing, China) 40592-V05H

[3] = system: SARS-CoV-2 pseudovirus in 293T-hACE2 cells; assay: Pseudovirus entry assay (luciferase), SARS-CoV-2 pseudovirus; type: cell-based
[4] = system: VSV pseudovirus in 293T-hACE2 cells; type: cell-based, vesicular stomatitis virus
[5] = target: T2, S-RBD-His protein (Severe acute respiratory syndrome coronavirus 2, UniProt P0DTC2); assay: Isothermal titration calorimetry (ITC) of compound with S-RBD-His; type: binding, SARS-CoV-2; conditions: 25 °C, read-out: affinity measured by ITC
T2 construct: spike S-RBD protein with His tag (26.6 kDa)

[6] = target: ACE2-S-RBD interaction (Severe acute respiratory syndrome coronavirus 2, UniProt P0DTC2); type: binding
[7] = Cytotoxicity in 293T-hACE2 cells (PrestoBlue / CCK); conditions: human, 293T-hACE2 cells
Procedure: (§1) First, cytotoxicity of 02B05 and 03D12 in 293T-hACE2 cells was assayed using PrestoBlue cell viability reagent. Briefly, the cells were seeded into 96-well plates and treated with different concentrations of compounds (a three-fold concentration series from 0.12 to 30 μM for 02B05 and 0.12 to 3.3 μM for 03D12). After incubation at 37 °C for 24 h, 10 μL PrestoBlue (10×) was added to each well and mixed well with the medium. After incubation at 37 °C for another 1 h, the fluorescent signals were read at an excitation wavelength of 560 nm and an emission wavelength of 590 nm, using the EnSpire multimode plate reader (Perkin Elmer, Waltham, MA, USA).

[8] = system: 293T-hACE2 cells; assay: as above
Procedure: as §1

Chain of human ACE2 protein (Q9BYF1 18-740 limits assumed): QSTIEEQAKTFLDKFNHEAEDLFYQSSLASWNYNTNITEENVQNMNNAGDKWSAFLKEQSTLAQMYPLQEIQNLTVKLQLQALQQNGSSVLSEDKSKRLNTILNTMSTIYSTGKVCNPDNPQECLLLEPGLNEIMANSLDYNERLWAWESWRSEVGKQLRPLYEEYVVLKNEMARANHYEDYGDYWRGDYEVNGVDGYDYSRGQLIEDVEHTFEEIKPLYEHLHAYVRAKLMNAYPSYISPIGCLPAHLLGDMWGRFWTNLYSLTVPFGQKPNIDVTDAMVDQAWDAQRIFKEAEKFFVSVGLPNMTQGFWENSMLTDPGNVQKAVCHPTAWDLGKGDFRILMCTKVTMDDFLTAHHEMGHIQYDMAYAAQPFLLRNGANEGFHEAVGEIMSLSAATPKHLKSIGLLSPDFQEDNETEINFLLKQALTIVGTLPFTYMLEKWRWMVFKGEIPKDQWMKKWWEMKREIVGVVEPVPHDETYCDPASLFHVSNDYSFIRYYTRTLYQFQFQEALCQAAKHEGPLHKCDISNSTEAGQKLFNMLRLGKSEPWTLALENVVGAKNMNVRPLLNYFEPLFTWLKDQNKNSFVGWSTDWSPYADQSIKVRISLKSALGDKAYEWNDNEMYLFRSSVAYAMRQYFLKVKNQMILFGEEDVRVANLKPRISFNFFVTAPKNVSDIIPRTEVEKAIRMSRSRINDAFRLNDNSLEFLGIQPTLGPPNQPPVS

SMILES: CC(C)c1cc(C(C)C)c(CC(=O)NS(=O)(=O)Oc2ccccc2)c(C(C)C)c1 [02C19]
- koff ([1]; read-out: koff): 0.052 s⁻¹
- kon ([1]; read-out: kon): 2340 M⁻¹ s⁻¹
- Kd ([1]; target ACE2, SPR, 1:1 binding model for kinetics): 22.2 µM

SMILES: Nc1nc(Nc2ccc3c(c2)CC[C@@H](N2CCCC2)CC3)nn1-c1cc2c(nn1)-c1ccccc1CCC2 [02J06]
- Kd [1]: 243 µM
- koff ([1]; read-out: koff): 0.636 s⁻¹
- kon ([1]; read-out: kon): 2610 M⁻¹ s⁻¹
- Kd [2]: 64.2 µM
- koff [2]: 0.329 s⁻¹
- kon [2]: 5120 M⁻¹ s⁻¹

SMILES: Cl.N [ammonium chloride, reference compound]
- infection by SARS-CoV-2 pseudovirus ([3]; positive control, 20 mM, 293T-hACE2 cells): almost abolished
- infection by VSV pseudovirus [4]: almost abolished

SMILES: C[C@@]1(C(=O)O)CC[C@]2(C)CC[C@]3(C)C4=CC(=O)c5c(cc(O)c(O)c5C=O)[C@]4(C)CC[C@@]3(C)[C@@H]2C1 [02B05, demethylzeylasteral]
- Kd [1]: 1.74 µM
- koff [1]: 0.00335 s⁻¹
- kon [1]: 1990 M⁻¹ s⁻¹
- Kd [2]: 1.04 µM
- koff [2]: 0.00244 s⁻¹
- kon [2]: 2350 M⁻¹ s⁻¹
- Kd [5]: 2.09 µM
- blocking effect on binding of S-RBD to ACE2 (competitive inhibition) [6]: strongest blocking effect
- CC50 at 24 h [7]: 7.67 ± 0.79 µM
- cell viability and cell morphology ([8]; at 0.37 μM): no changes were observed
- cell morphology ([8]; at 1.1 μM): affected
- effect on the activity (viability) of 293T-hACE2 cells ([8]; concentration no more than 1.1 μM, CCK and PrestoBlue): no significant effect
- inhibition at 0.37 µM ([3]; Severe acute respiratory syndrome-related coronavirus, 0.37 μM, 293T-hACE2 cells, 24 h post infection, read-out: inhibition of transduction of SARS-CoV-2 pseudovirus): ~7%
- effect on the transduction of VSV pseudovirus [4]: no effect

SMILES: COc1cc2c(Oc3ccc4[nH]c(C)cc4c3F)ncnc2cc1OCCCN1CCCC1 [03D12]
- Kd [1]: 3.43 µM
- koff ([1]; read-out: koff): 0.00948 s⁻¹
- kon ([1]; read-out: kon): 2760 M⁻¹ s⁻¹
- Kd [2]: 4.59 µM
- koff [2]: 0.00964 s⁻¹
- kon [2]: 2100 M⁻¹ s⁻¹
- blocking effect on binding of S-RBD to ACE2 (competitive inhibition) [6]: effective in blocking ACE2-S-RBD interaction
- cytotoxicity ([8]; concentration as high as 3.3 μM): not obvious
- inhibitory activity in pseudovirus entry assay ([3]; any concentration tested (0.12 to 3.3 μM)): did not exhibit significant inhibitory activity
- inhibitory activity in pseudovirus entry assay ([3]; at 3.3 μM): no obvious

SMILES: C=CC(=O)Nc1cc(Nc2nccc(-c3c[nH]c4ccccc34)n2)c(OC)cc1N(C)CCN(C)C [02C15]
- Kd [2]: 9.11 µM
- koff [2]: 0.0215 s⁻¹
- kon [2]: 2360 M⁻¹ s⁻¹
